Measured values: PMC3353973 (PLoS ONE, 2012)
Where two headings read alike, the source gives them in different places. Numbered stars: 1 amine (or outer) side, 2 acyl side, 3 side chain; on linkers, the order of the positions; unused ones are H or OH. Bridge positions count the residues as written; N and C are the ends. I, II: the chains in the order shown. * marks the point of attachment. X1 = CC(C)CCC[C@@H](C)[C@H]1CC[C@H]2[C@@H]3CC=C4C[C@@H](OCCN(CCNC(=O)CCOCCOCCOCCOCCNC(=O)CCCN5C(=O)CC([*:1])C5=O)CCNC(=O)CCOCCOCCOCCOCCNC(=O)CCCN5C(=O)CC([*:2])C5=O)CC[C@]4(C)[C@H]3CC[C@]12C; Cam = NC(=O)C*

Columns and labels:
[1] = biological target: Nipah virus envelope glycoproteins mediated fusion (Nipah virus, UniProt Q9IH63); test: cell-based; assay type: cell-based
Sequence of Nipah virus envelope glycoproteins mediated fusion (Q9IH63 110-546 limits assumed): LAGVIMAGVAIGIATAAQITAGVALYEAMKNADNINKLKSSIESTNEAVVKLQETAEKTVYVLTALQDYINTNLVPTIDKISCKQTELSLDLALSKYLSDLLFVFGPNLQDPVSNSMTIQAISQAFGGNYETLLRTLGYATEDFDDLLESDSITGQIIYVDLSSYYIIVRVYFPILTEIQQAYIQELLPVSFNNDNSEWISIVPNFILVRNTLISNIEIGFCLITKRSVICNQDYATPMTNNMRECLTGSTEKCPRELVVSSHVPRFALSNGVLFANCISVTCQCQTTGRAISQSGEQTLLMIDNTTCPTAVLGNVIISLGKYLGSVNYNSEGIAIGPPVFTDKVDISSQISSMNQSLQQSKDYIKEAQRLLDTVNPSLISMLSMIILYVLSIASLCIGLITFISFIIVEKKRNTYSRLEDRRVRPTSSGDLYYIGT
Sequence of Nipah virus envelope glycoproteins mediated fusion (Q9IH63 27-109 partner limits assumed): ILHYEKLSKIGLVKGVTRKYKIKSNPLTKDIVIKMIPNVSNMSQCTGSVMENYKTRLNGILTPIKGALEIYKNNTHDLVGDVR

[2] = test system: Nipah virus; parameters: species or system golden hamster (Mesocricetus auratus); settings: hamster, in vivo
[3] = biological target: type 3 HPIV envelope glycoproteins mediated fusion (Human parainfluenza 3 virus, UniProt P06828); test: cell-based; assay type: cell-based, human parainfluenza virus type 3 (HPIV3)
Sequence of type 3 HPIV envelope glycoproteins mediated fusion (P06828 19-109): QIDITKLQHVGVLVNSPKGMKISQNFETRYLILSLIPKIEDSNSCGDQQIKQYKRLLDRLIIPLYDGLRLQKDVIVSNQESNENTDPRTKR
Sequence of type 3 HPIV envelope glycoproteins mediated fusion (P06828 110-539): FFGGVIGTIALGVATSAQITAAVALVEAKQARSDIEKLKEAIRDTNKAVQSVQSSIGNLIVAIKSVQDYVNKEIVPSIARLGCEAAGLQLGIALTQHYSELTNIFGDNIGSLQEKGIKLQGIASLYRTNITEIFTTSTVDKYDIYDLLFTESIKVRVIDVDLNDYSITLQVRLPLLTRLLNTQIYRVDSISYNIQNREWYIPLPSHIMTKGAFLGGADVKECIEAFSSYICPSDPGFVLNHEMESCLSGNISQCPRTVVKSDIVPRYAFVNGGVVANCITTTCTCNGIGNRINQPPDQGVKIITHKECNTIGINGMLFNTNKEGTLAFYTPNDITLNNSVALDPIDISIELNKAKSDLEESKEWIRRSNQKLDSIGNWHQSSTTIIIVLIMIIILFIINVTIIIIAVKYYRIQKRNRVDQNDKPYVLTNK

[4] = test system: Nipah virus (isolate UMMC1)
[5] = test system: HIV-1 BaL; settings: TZM-bl cells; for IC50: read-out: IC50, inhibition of HIV-1 infectivity, strain BaL, R5 strain BaL, moi 4, luciferase read-out after 48 h

Molecule: I: Ac-VALDPIDISIVLNKAKSDLEESKEWIRRSNGKLDSIGSGSGC-NH2 / II: Ac-VALDPIDISIVLNKAKSDLEESKEWIRRSNGKLDSIGSGSGC-NH2 (linker I:42-II:42 via X1) [HPIV-P4]
- Fold more potent than the cholesterol-tagged monomer (HPIV-P3), NiV fusion [1]: ≈ 10 fold
- IC50 [1]: < 1 nM
- Onset of illness / lifespan of NiV-infected hamsters [2]: onset of the illness was considerably delayed in the other four, leading to a significantly extended lifespan
- Survival of NiV-infected hamsters [2]: survival of one of the five animals
- IC50 [3]: < 10 nM
- Relative fusion inhibitory potency in words, HPIV3 fusion [3]: considerably more potent than the cholesterol-tagged monomer
- IC50 ([4]; 1 h): 4.36 ± 1.3 nM

Molecule: CC[C@H](C)[C@H](NC(=O)[C@H](CC(C)C)NC(=O)[C@H](CO)NC(=O)[C@H](Cc1c[nH]cn1)NC(=O)[C@@H](NC(=O)[C@H](CC(C)C)NC(=O)[C@H](CO)NC(=O)[C@@H](NC(=O)[C@H](Cc1ccc(O)cc1)NC(=O)[C@H](CC(N)=O)NC(=O)[C@H](CC(N)=O)NC(=O)[C@@H](NC(=O)[C@H](CCC(=O)O)NC(=O)[C@H](CCCNC(=N)N)NC(=O)[C@H](CC(=O)O)NC(=O)[C@H](Cc1c[nH]c2ccccc12)NC(=O)[C@H](CCC(=O)O)NC(=O)[C@H](CCSC)NC(=O)[C@H](Cc1c[nH]c2ccccc12)NC(C)=O)[C@@H](C)CC)[C@@H](C)O)[C@@H](C)CC)C(=O)N[C@@H](CCC(=O)O)C(=O)N[C@@H](CCC(=O)O)C(=O)N[C@@H](CO)C(=O)N[C@@H](CCC(N)=O)C(=O)N[C@@H](CC(N)=O)C(=O)N[C@@H](CCC(N)=O)C(=O)N[C@@H](CCC(N)=O)C(=O)N[C@@H](CCC(=O)O)C(=O)N[C@@H](CCCCN)C(=O)N[C@@H](CC(N)=O)C(=O)N[C@@H](CCC(=O)O)C(=O)N[C@@H](CCC(N)=O)C(=O)N[C@@H](CCC(=O)O)C(=O)N[C@@H](CC(C)C)C(=O)N[C@@H](CC(C)C)C(=O)NCC(=O)N[C@@H](CO)C(=O)NCC(=O)N[C@@H](CSC1CC(=O)N(CCCC(=O)NCCOCCOCCOCCOCCC(=O)NCCN(CCNC(=O)CCOCCOCCOCCOCCNC(=O)CCCN2C(=O)CC(SC[C@H](NC(=O)CNC(=O)[C@H](CO)NC(=O)CNC(=O)[C@H](CC(C)C)NC(=O)[C@H](CC(C)C)NC(=O)[C@H](CCC(=O)O)NC(=O)[C@H](CCC(N)=O)NC(=O)[C@H](CCC(=O)O)NC(=O)[C@H](CC(N)=O)NC(=O)[C@H](CCCCN)NC(=O)[C@H](CCC(=O)O)NC(=O)[C@H](CCC(N)=O)NC(=O)[C@H](CCC(N)=O)NC(=O)[C@H](CC(N)=O)NC(=O)[C@H](CCC(N)=O)NC(=O)[C@H](CO)NC(=O)[C@H](CCC(=O)O)NC(=O)[C@H](CCC(=O)O)NC(=O)[C@@H](NC(=O)[C@H](CC(C)C)NC(=O)[C@H](CO)NC(=O)[C@H](Cc3c[nH]cn3)NC(=O)[C@@H](NC(=O)[C@H](CC(C)C)NC(=O)[C@H](CO)NC(=O)[C@@H](NC(=O)[C@H](Cc3ccc(O)cc3)NC(=O)[C@H](CC(N)=O)NC(=O)[C@H](CC(N)=O)NC(=O)[C@@H](NC(=O)[C@H](CCC(=O)O)NC(=O)[C@H](CCCNC(=N)N)NC(=O)[C@H](CC(=O)O)NC(=O)[C@H](Cc3c[nH]c4ccccc34)NC(=O)[C@H](CCC(=O)O)NC(=O)[C@H](CCSC)NC(=O)[C@H](Cc3c[nH]c4ccccc34)NC(C)=O)[C@@H](C)CC)[C@@H](C)O)[C@@H](C)CC)[C@@H](C)CC)C(N)=O)C2=O)CCO[C@H]2CC[C@@]3(C)C(=CC[C@H]4[C@@H]5CC[C@H]([C@H](C)CCCC(C)C)[C@@]5(C)CC[C@@H]43)C2)C1=O)C(N)=O (stereo partly shown) [HIV-P4]
- Potency increase versus the untagged HR-derived peptide (HIV-P2), strain BaL ([5]; ratio of IC50): 6,000 fold
- IC50 [5]: 0.01 ± 0.01 nM

Molecule: Ac-VALDPIDISIVLNKAKSDLEESKEWIRRSNGKLDSIGSGSGC(Cam)-NH2 [HPIV-P2]
- IC50 [1]: > 100 nM
- IC50 [3]: > 100 nM

Molecule: CC[C@H](C)[C@H](NC(=O)[C@H](CC(C)C)NC(=O)[C@H](CO)NC(=O)[C@H](Cc1c[nH]cn1)NC(=O)[C@@H](NC(=O)[C@H](CC(C)C)NC(=O)[C@H](CO)NC(=O)[C@@H](NC(=O)[C@H](Cc1ccc(O)cc1)NC(=O)[C@H](CC(N)=O)NC(=O)[C@H](CC(N)=O)NC(=O)[C@@H](NC(=O)[C@H](CCC(=O)O)NC(=O)[C@H](CCCNC(=N)N)NC(=O)[C@H](CC(=O)O)NC(=O)[C@H](Cc1c[nH]c2ccccc12)NC(=O)[C@H](CCC(=O)O)NC(=O)[C@H](CCSC)NC(=O)[C@H](Cc1c[nH]c2ccccc12)NC(C)=O)[C@@H](C)CC)[C@@H](C)O)[C@@H](C)CC)C(=O)N[C@@H](CCC(=O)O)C(=O)N[C@@H](CCC(=O)O)C(=O)N[C@@H](CO)C(=O)N[C@@H](CCC(N)=O)C(=O)N[C@@H](CC(N)=O)C(=O)N[C@@H](CCC(N)=O)C(=O)N[C@@H](CCC(N)=O)C(=O)N[C@@H](CCC(=O)O)C(=O)N[C@@H](CCCCN)C(=O)N[C@@H](CC(N)=O)C(=O)N[C@@H](CCC(=O)O)C(=O)N[C@@H](CCC(N)=O)C(=O)N[C@@H](CCC(=O)O)C(=O)N[C@@H](CC(C)C)C(=O)N[C@@H](CC(C)C)C(=O)NCC(=O)N[C@@H](CO)C(=O)NCC(=O)N[C@@H](CSCC(N)=O)C(N)=O [HIV-P2]
- IC50 [5]: 60.1 ± 84 nM

Molecule: Ac-VALDPIDISIVLNKAKSDLEESKEWIRRSNGKLDSI-GSGSG-C(PEG4-Chol)-NH2 [HPIV-P3]
- IC50 ([1]; read-out: IC50, inhibition of NiV envelope glycoprotein mediated cell-to-cell fusion): 1 to 10 nM
- Fold more potent than the untagged inhibitor (HPIV-P2), HPIV3 fusion [3]: ≈ 10 fold
- IC50 ([3]; read-out: IC50, inhibition of HPIV3 envelope glycoprotein mediated cell-to-cell fusion): 10 to 100 nM
- IC50 ([4]; read-out: IC50, NiV live virus plaque reduction): 8.02 ± 0.66 nM
